Columns and labels:
[1] = target: T1, Thymidylate synthase (Homo sapiens, UniProt P04818); experiment: Inhibition of human thymidylate synthase
Target sequence in this assay (P04818 whole entry): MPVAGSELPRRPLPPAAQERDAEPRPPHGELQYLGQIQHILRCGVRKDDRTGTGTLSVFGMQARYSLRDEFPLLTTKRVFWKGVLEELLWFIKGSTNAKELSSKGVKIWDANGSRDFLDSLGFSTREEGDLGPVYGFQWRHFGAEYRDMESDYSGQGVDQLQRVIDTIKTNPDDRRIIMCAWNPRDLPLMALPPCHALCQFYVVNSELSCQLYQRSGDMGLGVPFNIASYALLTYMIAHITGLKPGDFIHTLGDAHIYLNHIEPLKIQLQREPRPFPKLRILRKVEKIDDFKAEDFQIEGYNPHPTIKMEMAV

[2] = target: T1, Thymidylate synthase; experiment: Inhibition of human thymidylate synthase at >23 uM
Target sequence in this assay (P04818 2-313 limits assumed): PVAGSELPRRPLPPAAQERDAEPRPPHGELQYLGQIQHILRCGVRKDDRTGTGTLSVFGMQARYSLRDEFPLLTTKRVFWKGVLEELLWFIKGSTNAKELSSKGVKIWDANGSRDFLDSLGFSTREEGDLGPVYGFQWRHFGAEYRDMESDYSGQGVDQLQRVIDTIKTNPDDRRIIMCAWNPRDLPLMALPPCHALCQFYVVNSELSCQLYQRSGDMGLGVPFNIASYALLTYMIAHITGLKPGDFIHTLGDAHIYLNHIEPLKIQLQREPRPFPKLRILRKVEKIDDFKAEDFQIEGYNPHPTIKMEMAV

[3] = target: Thymidylate synthase (Escherichia coli, UniProt C3SWJ7); experiment: Inhibition of Escherichia coli thymidylate synthase
[4] = target: Thymidylate synthase (Escherichia coli) (UniProt C3SWJ7); experiment: Inhibition of Escherichia coli thymidylate synthase at >[…] uM
[5] = target: T2, Bifunctional dihydrofolate reductase-thymidylate synthase (Toxoplasma gondii, UniProt Q07422); experiment: Inhibition of Toxoplasma gondii thymidylate synthase
T2 sequence (Q07422 whole entry): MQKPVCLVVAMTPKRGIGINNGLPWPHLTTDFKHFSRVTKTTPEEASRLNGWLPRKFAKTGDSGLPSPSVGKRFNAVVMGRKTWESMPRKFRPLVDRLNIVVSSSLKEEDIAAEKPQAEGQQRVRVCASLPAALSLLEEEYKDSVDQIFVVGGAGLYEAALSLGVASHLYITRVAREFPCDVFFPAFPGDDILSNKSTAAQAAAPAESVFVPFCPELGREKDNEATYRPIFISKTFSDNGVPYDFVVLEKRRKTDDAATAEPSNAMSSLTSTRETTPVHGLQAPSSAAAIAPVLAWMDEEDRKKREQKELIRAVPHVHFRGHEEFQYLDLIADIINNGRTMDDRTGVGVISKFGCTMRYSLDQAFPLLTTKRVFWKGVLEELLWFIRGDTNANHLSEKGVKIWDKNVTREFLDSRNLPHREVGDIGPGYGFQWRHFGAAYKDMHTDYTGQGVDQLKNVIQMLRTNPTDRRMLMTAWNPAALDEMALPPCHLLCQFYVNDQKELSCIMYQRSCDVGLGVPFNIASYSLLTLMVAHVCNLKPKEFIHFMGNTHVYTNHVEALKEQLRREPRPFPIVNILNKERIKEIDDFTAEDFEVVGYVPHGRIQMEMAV

[6] = target: T3, Bifunctional dihydrofolate reductase-thymidylate synthase (Toxoplasma gondii) (UniProt Q07422); experiment: Inhibition of Toxoplasma gondii thymidylate synthase at >[…] uM
T3 sequence (whole entry): T2 sequence (Q07422 whole entry)

[7] = target: T2, Bifunctional dihydrofolate reductase-thymidylate synthase; experiment: Inhibition of Toxoplasma gondii dihydrofolate reductase
[8] = target: T4, Dihydrofolate reductase (Homo sapiens, UniProt P00374)
T4 sequence (P00374 whole entry): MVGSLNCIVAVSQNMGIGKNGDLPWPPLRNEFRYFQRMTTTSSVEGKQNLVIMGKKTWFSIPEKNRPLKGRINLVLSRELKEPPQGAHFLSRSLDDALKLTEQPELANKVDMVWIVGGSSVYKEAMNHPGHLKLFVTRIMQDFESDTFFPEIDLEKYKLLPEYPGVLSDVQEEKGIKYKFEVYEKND

[9] = target: T5, Dihydrofolate reductase (Pneumocystis carinii, UniProt P16184)
T5 sequence (P16184 whole entry): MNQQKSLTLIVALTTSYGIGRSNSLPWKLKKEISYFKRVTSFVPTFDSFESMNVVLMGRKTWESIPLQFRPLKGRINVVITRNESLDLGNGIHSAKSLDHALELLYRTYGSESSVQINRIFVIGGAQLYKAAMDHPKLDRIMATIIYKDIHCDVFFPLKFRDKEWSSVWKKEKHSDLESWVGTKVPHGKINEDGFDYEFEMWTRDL
Description: (§1) Inhibition of Pneumocystis carinii DHFR using dihydrofolic acid substrate and NADPH cofactor

[10] = target: T6, Dihydrofolate reductase (Rattus norvegicus, UniProt Q920D2)
T6 sequence (Q920D2 whole entry): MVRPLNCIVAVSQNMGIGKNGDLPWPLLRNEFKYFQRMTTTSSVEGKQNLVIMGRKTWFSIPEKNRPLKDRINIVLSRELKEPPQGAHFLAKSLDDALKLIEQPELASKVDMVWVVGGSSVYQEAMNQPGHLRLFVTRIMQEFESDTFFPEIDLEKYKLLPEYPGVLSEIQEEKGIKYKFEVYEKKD

[11] = cells; settings: Homo sapiens, HL-60
Description: Cytotoxicity against human HL60(TB) cells

[12] = test system: K562; experiment: cells; settings: Homo sapiens
Description: Cytotoxicity against human K562 cells

[13] = test system: MOLT-4; experiment: cells; settings: Homo sapiens
Description: Cytotoxicity against human MOLT4 cells

[14] = test system: NCI-H460; experiment: cells; settings: Homo sapiens
Description: Cytotoxicity against human NCI-H460 cells

[15] = test system: HT-29; experiment: cells; settings: Homo sapiens
Description: Cytotoxicity against human HT29 cells

[16] = test system: SW-620; experiment: cells; settings: Homo sapiens
Description: Cytotoxicity against human SW620 cells

[17] = test system: SF-268; experiment: cells; settings: Homo sapiens
Description: Cytotoxicity against human SF268 cells

[18] = test system: LOX IMVI; experiment: cells; settings: Homo sapiens
Description: Cytotoxicity against human LOXIMVI cells

[19] = test system: PC-3; experiment: cells; settings: Homo sapiens
Description: Cytotoxicity against human PC3 cells

[20] = test system: MCF7; experiment: cells; settings: Homo sapiens
Description: Cytotoxicity against human MCF7 cells

[21] = test system: ACHN; experiment: cells; settings: Homo sapiens
Description: Cytotoxicity against human ACHN cells

[22] = test system: CAKI-1; experiment: cells; settings: Homo sapiens
Description: Cytotoxicity against human CAKI1 cells

[23] = test system: 786-0; experiment: cells; settings: Homo sapiens
[24] = target: T1, Thymidylate synthase; experiment: Inhibition of human thymidylate synthase at >[…] uM
Target sequence in this assay (P04818 2-313 limits assumed): as the sequence (P04818 2-313 limits assumed) above

[25] = target: T7, Dihydrofolate reductase (Homo sapiens) (UniProt P00374); experiment: Inhibition of human dihydrofolate reductase at >[…] uM
T7 sequence (whole entry): T4 sequence (P00374 whole entry)

[26] = target: Dihydrofolate reductase (Pneumocystis carinii) (UniProt P16184); experiment: Inhibition of Pneumocystis carinii DHFR at […] using dihydrofolic acid substrate and NADPH cofactor
[27] = target: T5, Dihydrofolate reductase; remark: listed apart in the source
Description: as §1

[28] = target: Dihydrofolate reductase (Pneumocystis carinii) (UniProt P16184); experiment: Inhibition of Pneumocystis carinii DHFR at 22 uM using dihydrofolic acid substrate and NADPH cofactor
[29] = target: T7, Dihydrofolate reductase (Homo sapiens); experiment: Inhibition of human dihydrofolate reductase at >30 uM

Chain of Thymidylate synthase (Escherichia coli) (C3SWJ7 1-264): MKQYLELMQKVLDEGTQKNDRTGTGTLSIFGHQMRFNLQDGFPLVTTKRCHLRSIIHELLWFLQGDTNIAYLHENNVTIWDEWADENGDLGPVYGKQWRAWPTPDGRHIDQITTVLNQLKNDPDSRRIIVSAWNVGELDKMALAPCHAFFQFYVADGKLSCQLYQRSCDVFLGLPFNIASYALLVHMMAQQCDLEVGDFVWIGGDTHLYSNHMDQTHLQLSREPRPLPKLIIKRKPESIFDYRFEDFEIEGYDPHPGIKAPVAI
Chain of Thymidylate synthase (Escherichia coli, UniProt C3SWJ7) (C3SWJ7 whole entry): as the sequence (C3SWJ7 1-264) above

Structure (SMILES) | IC50 [1] | IC50 [3] | inhibition [4] | IC50 [5] | inhibition [6] | IC50 [7] | IC50 [8] | IC50 [9] | IC50 [10] | inhibition [24] | also measured
COc1ccc(Sc2[nH]c3nc(N)nc(N)c3c2C(C)C)cc1OC | > 23 µM | > 2.3 µM | 0% | > 2.3 µM | 0% | 2.7 µM | 27 µM | 28.2 µM | 4.6 µM | – | inhibition [2]: 0%
CCCc1c(Sc2ccc(C(=O)N[C@@H](CCC(=O)O)C(=O)O)cc2)[nH]c2nc(N)nc(N)c12 | – | – | – | – | – | – | – | 0.00311 µM | 0.06 µM | – | GI50 [11]: 1.28 µM; GI50 [12]: 0.952 µM; GI50 [13]: 19.4 µM; GI50 [14]: 0.267 µM; GI50 [15]: 9.58 µM; GI50 [16]: 1.21 µM; GI50 [17]: 1.61 µM; GI50 [18]: < 0.01 µM; GI50 [19]: > 100 µM; GI50 [20]: 0.164 µM; GI50 [21]: 15.2 µM; GI50 [22]: 0.376 µM; GI50 [23]: 0.0128 µM
CCCc1c(Sc2c(C)cccc2C)[nH]c2nc(N)nc(N)c12 | > 24 µM | > 24 µM | – | – | – | – | 3 µM | 5.32 µM | 2.43 µM | – | –
CCCc1c(Sc2ccc3ccccc3c2)[nH]c2nc(N)nc(N)c12 | > 12 µM | > 12 µM | – | > 15 µM | – | 0.15 µM | > 15 µM | – | 3.8 µM | 0% | inhibition [25]: 30%; inhibition [26]: 16%; IC50 [27]: 3.5 µM
CC(C)c1c(Sc2c(Cl)cccc2Cl)[nH]c2nc(N)nc(N)c12 | > 22 µM | > 2.2 µM | – | > 2.2 µM | – | 0.52 µM | > 26 µM | – | 2.4 µM | – | inhibition [25]: 37%; inhibition [28]: 14%; IC50 [27]: 22 µM
CC(C)c1c(Sc2ccccc2)[nH]c2nc(N)nc(N)c12 | > 27 µM | > 2.7 µM | 0% | > 2.7 µM | 0% | 0.064 µM | 16 µM | 11.2 µM | 2 µM | 0% | –
Cc1cccc(C)c1Sc1[nH]c2nc(N)nc(N)c2c1C(C)C | > 13 µM | > 13 µM | 0% | > 13 µM | 0% | 0.3 µM | > 30 µM | – | 14.8 µM | – | inhibition [29]: 10%
CCCc1c(Sc2ccc(OC)cc2)[nH]c2nc(N)nc(N)c12 | > 13 µM | > 13 µM | 0% | > 13 µM | 12% | 0.23 µM | > 30 µM | 4.21 µM | 1.25 µM | – | inhibition [29]: 15%
CC(C)c1c(Sc2cccc3ccccc23)[nH]c2nc(N)nc(N)c12 | > 12 µM | > 12 µM | – | > 12 µM | 0% | 0.12 µM | > 29 µM | 0.68 µM | 0.91 µM | 0% | –
CCCc1c(Sc2c(Cl)cccc2Cl)[nH]c2nc(N)nc(N)c12 | > 22 µM | > 22 µM | 0% | – | – | – | 2.6 µM | 5.35 µM | 5.95 µM | – | –
